The results in this text go back to a melting point compilation (Tetko et al.; mined from patent text by program, amines drawn as free bases though some values may be those of a salt).

The structures appear in SMILES notation.

In turn, `COC(=O)C1=C(C)Nc2cc[nH]c(=O)c2C1c1ccccc1C(F)(F)F` (configuration not stated) came in with a melting point of 295 °C.

Compound `N#Cc1cccc(NC2CCN(Cc3cc(F)cc(C(F)(F)F)c3)CC2)n1` gave a melting point of 115 °C.

For `NCc1cccc(-n2cnc3cnc4ccc(Cl)cc4c32)c1`, the melting point is 148 to 149 °C.

In turn, `Cc1cc(N2CC=C(C(N)=O)CC2)c2cccc(Br)c2n1` returned a melting point of 225 to 227 °C.

Regarding `CC1(C)[C@@H](NCC(=O)N2C[C@@H](F)C[C@H]2C#N)CC[C@@]1(C)c1nc(-c2ccc(F)cc2)no1`, the melting point lay within 127 to 131 °C.

Consider `COC(=O)CCC(=O)Nc1cccc(O)c1`, for which the melting point fell in the range of 144 to 146 °C.

The compound `CSc1ccc(CC2C(C)=Cc3cc(F)ccc32)cc1` (configuration not stated) returned a melting point of 58 to 59 °C.

In turn, `O=C(OCc1ccccc1)N1C[C@@H](O)[C@H](Oc2cccc(Cl)c2Cl)C1` (relative stereo) returned a melting point of 130 to 132 °C.

`CN1C(=O)C(NC(=O)CCc2ccc(Cl)cc2Cl)N=C(c2ccccc2)c2ccncc21` (configuration not stated) came in with a melting point of 220 to 221 °C.

The compound `Nc1c(Cl)cc(C(O)CNCCCCCCOCCOCCc2ccccn2)cc1Cl` (configuration not stated) displayed a melting point of 45.5 to 46.5 °C.

`CCOC(=O)CNC(=S)Cc1cnc(C)c2c1COC(C)(C)O2` showed a melting point of 156 to 158 °C.

For `CCCCCc1ccc(C(=O)CCC(=O)O)cc1`, the melting point was in the range of 98 to 100 °C.

For `COCC1(O)CCN(c2ccc(N3C[C@H](CNC(C)=O)OC3=O)cc2)CC1`, the melting point lay within 152 to 154 °C.

On to `NC1(c2ccccc2)C(=O)Nc2ccc(Cl)cc21` (configuration not stated), for which the melting point lay in the range of 230 to 235 °C.

As for `Cc1ccc(Cl)c(N)c1C#N`, the melting point was 77 to 80 °C.

With `COc1ccc2cc(-c3ccc(S(C)(=O)=O)cc3)ccc2n1`, the melting point lay in the range of 182 to 184 °C.

The compound `COC(=O)c1ccc(C(=O)NS(=O)(=O)c2ccc(CCNC(=O)c3ccccc3)cc2)cn1` showed a melting point of 228 to 230 °C.

The compound `COc1ccc2c(c1)N(CC1CN3CCC1CC3)c1ccccc1S2` (configuration not stated) returned a melting point of 135 to 136 °C.

`O=C(NCc1ccc(-c2n[nH]c3c2Cc2ccccc2-3)s1)N1CCOCC1`: the melting point fell in the range of 240 to 247 °C.

`O=C(O)c1ccc2c(c1)Sc1ccc(F)cc1C(=O)C2` displayed a melting point of 289 to 291 °C.

The compound `O=S(=O)(Cc1ccc(Cl)c(Cl)c1)Cc1ccc(Cl)c(Cl)c1` returned a melting point of 177 °C.

The compound `CCn1c(=O)c2c(N3CCN(C)CC3)cc(Cl)cc2n(Cc2ccccc2)c1=O` returned a melting point of 155 to 159 °C.

The compound `CN(C)Cc1ccc(CSCCNC2=NS(=O)(=O)C(S(C)(=O)=O)=C2N)o1` had a melting point of 187 to 189 °C.

In turn, `CC(CCc1ccc(F)cc1)NCc1c(CO)ccc(O)c1CO` (configuration not stated) registered a melting point of 101 to 103 °C.

The compound `CCOC(=O)C1=C(N)NC(C)=C(C(=O)O)C1c1ccccc1-c1ccccc1` (configuration not stated) returned a melting point of 182 °C.

`Cc1ccc(C(C)n2[nH]c(C)cc2=O)cc1` (configuration not stated) came in with a melting point of 144 to 146 °C.

Compound `COc1ccccc1-c1cc(N)c(S(N)(=O)=O)cc1C` gave a melting point of 172 to 175 °C.

In the case of `CC(C(=O)N(C)C)n1nc(-c2ccccc2)c(Cl)c1Cl` (configuration not stated), the melting point was in the range of 102 to 103 °C.

As for `CCC(CC)Oc1cc(C)nc(Oc2c(C)cc(C)cc2C)c1N`, the melting point is 96 to 98 °C.

`CCc1oc2ccc(C)cc2c1C(=O)c1ccc(Cl)c(S(N)(=O)=O)c1` gave a melting point of 147 to 150 °C.

In turn, `CN1C(=O)CCCc2cc(Nc3ncc(Cl)c(NC4CCCCC4C(N)=O)n3)ccc21` (configuration not stated) had a melting point of 251 to 253 °C.

In the case of `CSC1C(=O)Nc2ccc(C3=NNC(=O)SC3)cc21` (configuration not stated), the melting point lay within 201 to 204 °C.

Compound `COC(=O)c1ccc(Cc2c(Cl)n(C)c3ccc(CC(C)NC(=O)N(C)C)cc23)c(OC)c1` (configuration not stated) had a melting point of 148 °C.

For the compound `CC(/C=C/C=C(\C)C1=Cc2cc(C(F)(F)F)ccc2OC1)=C\C(=O)O`, the melting point lay within 245 to 246 °C.

Regarding `CS(=O)(=O)c1ccc(-c2cnn(CC3CC3)c(=O)c2-c2ccc(F)cc2)cc1`, the melting point lay in the range of 118 to 121 °C.

Compound `CC1(C)CCC(C)(C)c2cc(-c3cc(C=CC(=O)O)ccc3O)c(OCc3ccc(F)cc3)cc21` yielded a melting point of 123 to 125 °C.

For the compound `CC(C)(C)C(F)(F)c1ccc(C[C@@H](NC(=O)c2cccc3c2C=CCCC3)[C@@H](O)c2cccc(Cl)c2)cc1` (racemic), the melting point lay within 119 to 120 °C.

For the compound `COc1cccc(C#Cc2ncn3c2[C@@H]2CCCN2C(=O)c2c(Cl)cccc2-3)c1`, the melting point lay in the range of 204 to 205 °C.

In the case of `COc1cc(CC(=O)O)ccc1OCCNC(=O)C1Cc2ccccc2N1S(=O)(=O)c1ccc(-c2cccc(C(F)(F)F)c2)cc1` (configuration not stated), the melting point was 89 to 98 °C.

Turning to `COc1ccc2c(c1)c(CC(=O)Oc1cccc(CO[N+](=O)[O-])c1)c(C)n2C(=O)c1ccc(Cl)cc1`, the melting point fell in the range of 115 to 117 °C.

In turn, `CCCCCCCCCc1ccc(C(=O)CC(=O)C(=O)O)cc1` returned a melting point of 90 to 91 °C.

`CNc1ncnc2c1c(-c1ccc([N+](=O)[O-])o1)nn2C` returned a melting point of 280 °C.

The compound `COc1cccc(C2(CC(=O)N(C)C)C=CCCC2)c1` (configuration not stated) gave a melting point of 161 to 162 °C.

`COc1ccc(N2CCC(=O)N(c3ccc(F)cc3)CC2)c(-c2ccc(N(C)C)cc2)n1`: the melting point fell in the range of 130 to 139 °C.

The compound `O=S(=O)(Cl)c1cccc2c(I)cccc12` gave a melting point of 113 to 114 °C.

The compound `CCOC(=O)CC[C@H](NC(=O)c1cc(CCCc2cc3c(=O)[nH]c(N)nc3[nH]2)cs1)C(=O)OCC` gave a melting point of 81 to 82 °C.

Turning to `O=C(CS(=O)(=O)C(c1ccc(Cl)cc1)c1ccc(Cl)cc1)c1ccccn1`, the melting point is 120 to 121 °C.

`CCOC(=O)C1=C(C)NC(O)(c2ccc([N+](=O)[O-])cc2)C(C(=O)OCC)C1c1cccc([N+](=O)[O-])c1` (configuration not stated) registered a melting point of 196 to 197 °C.

`c1ccc(OCCn2c(CC3CC3)nc3cnc4cc(-c5ccccc5)ccc4c32)cc1` displayed a melting point of 175 to 176 °C.

Regarding `CN(C)C=C(C#N)C(=O)Nc1ccccc1`, the melting point lay in the range of 162 to 164 °C.

For the compound `O=c1oc(-c2ccccc2)cc(O)c1SCc1cccc(OCc2ccccc2)c1`, the melting point was in the range of 140 to 141 °C.

Compound `Cc1ccccc1OCCOS(N)(=O)=O` displayed a melting point of 81.5 to 83 °C.

`CC(C)(C)NC(=O)c1nn(-c2ccc(F)cc2F)c2c1[C@@H]1CC[C@@]2(C)C1(C)C` came in with a melting point of 161 to 163 °C.

`CC(=O)OC1O[C@H](CN=[N+]=[N-])[C@H](OC(C)=O)[C@H](OC(C)=O)[C@H]1OC(C)=O` (some centres not stated) came in with a melting point of 89.9 to 90.3 °C.

The compound `C=CC(C)c1cc(C)c2c(c1O)C(N(C)C(=O)c1cccnc1)C1CCCCC21` (configuration not stated) registered a melting point of 183 to 184 °C.

In turn, `CSc1nc(NCc2ccc(Br)cc2)n2ncc(C(C)C)c2n1` registered a melting point of 171 to 172 °C.

`CNc1cc(C(F)(F)F)no1` yielded a melting point of 48.5 to 50 °C.

The compound `OC1(C2CCNCC2)CC(c2ccc(F)cc2)c2ccc(F)cc21` (configuration not stated) had a melting point of 198 °C.

With `C=CCn1c(=O)c2cnc(Nc3ccc(OCCN(CC)CC)cc3)nc2n(C(C)C)c1=O`, the melting point was in the range of 90 to 96 °C.

Consider `CC1(C)CCC(C)(C)c2cc(OCc3ccc(C(=O)O)cc3)ccc21`, for which the melting point is greater than 330 °C.

Compound `CCCCCCCCCCOC1CCC(=O)N1` (configuration not stated) had a melting point of 44 to 46 °C.

Compound `O=[N+]([O-])c1ccc2c(c1)OC(CO)O2` (configuration not stated) yielded a melting point of 80 to 82 °C.

One may read the melting point as the temperature, or range, at which the solid turns liquid.
